Key:
[1] = LUMO level estimated from cyclic voltammetry (CV); type: physicochemical; settings: for E1/2^1, half-wave potential of the first reduction wave: CV, 3-electrode system, chlorobenzene:acetonitrile=5:1, n-Bu4NPF6 0.1 mol/L; for LUMO: ELUMO=−(E1/2^1+4.8) eV, from CV
Method: The LUMO level can be measured by a method according to Karakawa et al., Journal of Materials Chemistry A, 2014, vol. 2, p. 20889.
The LUMO level of the fullerene derivatives obtained in Synthesis Examples and the control compounds was estimated from the measured values in cyclic voltammetry (CV).
The measurement was performed in accordance with the experiment section in M. Karakawa et al., Journal of Material Chemistry A, 2014, vol. 2, p. 20889. • Measurement Device: BAS CV-50W Voltammetric Analyzer • Measurement Solvent: Chlorobenzene:Acetonitrile=5:1 • Supporting Electrolyte: n-Bu4NPF6 concentration 0.1 mol/L
The LUMO level is calculated from the half-wave potential E1/2^1 (Fc/Fc^+ benchmark) of the first reduction wave measured by CV (3-electrode system) using the following equation. ELUMO=−(E1/2^1+4.8)ev

[2] = Solubility measured with a toluene solution (absorbance of the supernatant of a supersaturated solution); type: physicochemical; settings: room temperature, from absorbance and molar extinction coefficient
Method: The solubility in toluene at room temperature can be determined from the absorbance in accordance with the Beer-Lambert law. First, a molar extinction coefficient is determined using a fullerene derivative toluene solution of a known concentration. A predetermined amount of the supernatant of a supersaturated fullerene derivative toluene solution is weighed, and the absorbance of this solution is measured. The concentration is calculated from the following equation. C=A/εd wherein C is a concentration; A is an absorbance; ε is a molar extinction coefficient; and d is a cell length for absorbance measurement (1 cm)
The solubility of each fullerene derivative was calculated from the absorbance measured with an ultraviolet-visible absorptiometer.
In advance, the absorbance of the fullerene derivatives of a predetermined concentration was measured to determine the molar extinction coefficient of each compound.
A supersaturated toluene solution of a fullerene derivative was prepared. A predetermined amount of the supernatant of this solution was taken out, and its absorbance was measured.
From the measured absorbance value and the molar extinction coefficient, the concentration of the supernatant of the supersaturated toluene solution was determined.

Row | Compound | E1/2^1, half-wave potential of the first reduction wave [1] | LUMO [1] | Solubility in Toluene [2]
1 | CCCCCCC1N(c2ccccc2)C(c2ccccc2)C23c4c5c6c7c8c9c(c%10c%11c2c2c%12c4c4c%13c5c5c7c7c8c8c%14c9c%10c9c%10c%11c2c2c%11c%12c4c4c%12c%13c5c5c7c7c8c8c%14c9c9c%10c2c2c%11c4c4c%12c5c7c5c8c9c2c45)C613 (stereo not drawn) [Compound 1] | −1.16 V vs Fc/Fc^++ | −3.64 eV | 0.5%
2 | CCCCCCC1N(c2ccccc2)C(CC(CC)CCCC)C23c4c5c6c7c8c9c(c%10c%11c2c2c%12c4c4c%13c5c5c7c7c8c8c%14c9c%10c9c%10c%11c2c2c%11c%12c4c4c%12c%13c5c5c7c7c8c8c%14c9c9c%10c2c2c%11c4c4c%12c5c7c5c8c9c2c45)C613 (stereo not drawn) [Compound 8] |  |  | 7.0%
3 | COCCOCCOCC1N(c2ccccc2)C(c2ccccc2)C23c4c5c6c7c8c9c(c%10c%11c2c2c%12c4c4c%13c5c5c7c7c8c8c%14c9c%10c9c%10c%11c2c2c%11c%12c4c4c%12c%13c5c5c7c7c8c8c%14c9c9c%10c2c2c%11c4c4c%12c5c7c5c8c9c2c45)C613 (stereo not drawn) [Compound 3] | −1.17 V vs Fc/Fc^++ | −3.63 eV | 0.5%
4 | CCCCOCC1N(c2ccccc2)C(c2ccccc2)C23c4c5c6c7c8c9c(c%10c%11c2c2c%12c4c4c%13c5c5c7c7c8c8c%14c9c%10c9c%10c%11c2c2c%11c%12c4c4c%12c%13c5c5c7c7c8c8c%14c9c9c%10c2c2c%11c4c4c%12c5c7c5c8c9c2c45)C613 (stereo not drawn) [Compound 4] | −1.17 V vs Fc/Fc^++ | −3.63 eV | 0.5%
5 | CCCCCCC1N(c2ccccc2)CC23C4=c5ccc6c7ccc8c9ccc%10c%11ccc%12c%13c(c%14c%15c2c5c6c2c7c8c5c9c%10c(c%13%11)c%14c5c%152)C13C=%12C=C4 (stereo not drawn) [Control Compound 2, reference compound] | −1.14 V vs Fc/Fc^++ | −3.66 eV | 1.8%
6 | C1=CC2=c3ccc4c5ccc6c7ccc8c9ccc%10c%11c%12c%13c%14c(c3c4c3c5c6c4c7c8c(c%119)c%13c4c%143)C23C(c2ccccc2)N(c2ccccc2)CC%123C=%101 (stereo not drawn) [Control Compound 1, reference compound] | −1.13 V vs Fc/Fc^++ | −3.67 eV | 0.3%
7 | CCCCC(CC)CC1N(c2ccccc2)C(c2ccccc2)C23c4c5c6c7c8c9c(c%10c%11c2c2c%12c4c4c%13c5c5c7c7c8c8c%14c9c%10c9c%10c%11c2c2c%11c%12c4c4c%12c%13c5c5c7c7c8c8c%14c9c9c%10c2c2c%11c4c4c%12c5c7c5c8c9c2c45)C613 (stereo not drawn) [Compound 2] | −1.17 V vs Fc/Fc^++ | −3.63 eV | 1.0%
8 | COC(=O)CCCC1(c2ccccc2)C23c4c5c6c7c8c9c(c%10c%11c2c2c%12c4c4c%13c5c5c7c7c8c8c%14c9c%10c9c%10c%11c2c2c%11c%12c4c4c%12c%13c5c5c7c7c8c8c%14c9c9c%10c2c2c%11c4c4c%12c5c7c5c8c9c2c45)C613 (stereo not drawn) [[60]PCBM, [6,6]-phenyl-C61-butyric acid methyl ester, reference compound] | −1.13 V vs Fc/Fc^++ | −3.67 eV | 
